According to patent publication US11447487B2, “Spiroheptanyl hydantoins as rock inhibitors” (BRISTOL-MYERS SQUIBB COMPANY, priority 2017, dated 2022):

target: ROCK2 (Homo sapiens (Human), UniProt O75116); assay: ROCK assay (Caliper LABCHIP peptide phosphorylation); assay type: biochemical; conditions: 5 μM ATP, 1.5 μM peptide substrate
Experimental: The effectiveness of compounds of the present invention as ROCK inhibitors can be determined in a 30 μL assay containing 20 mM HEPES, pH 7.5, 20 mM MgCl2, 0.015% Brij-35, 4 mM DTT, 5 μM ATP and 1.5 μM peptide substrate (FITC-AHA-AKRRRLSSLRA-OH) (SEQ ID No. 1). Compounds were dissolved in DMSO so that the final concentration of DMSO was <2%, and the reaction was initiated with Rho kinase variants. After incubation, the reaction was terminated by the addition of EDTA and the phosphorylated and non-phosphorylated peptides separated using a LABCHIP® 3000 Reader (Caliper Life Sciences). […] Compounds were tested in dose-response format, and the inhibition of kinase activity was calculated at each concentration of compound. The inhibition data were fit using a curve-fitting program to determine the IC50; i.e., the concentration of compound required to inhibit 50% of kinase activity. Representative Examples were tested in the ROCK assay described above and found having ROCK inhibitory activity. A range of ROCK inhibitory activity (IC50 values) of ≤50 μM (50000 nM) was observed. Table A below lists the ROCK IC50 values measured for the following examples.

Chain of ROCK2 (O75116 whole entry, species assumed): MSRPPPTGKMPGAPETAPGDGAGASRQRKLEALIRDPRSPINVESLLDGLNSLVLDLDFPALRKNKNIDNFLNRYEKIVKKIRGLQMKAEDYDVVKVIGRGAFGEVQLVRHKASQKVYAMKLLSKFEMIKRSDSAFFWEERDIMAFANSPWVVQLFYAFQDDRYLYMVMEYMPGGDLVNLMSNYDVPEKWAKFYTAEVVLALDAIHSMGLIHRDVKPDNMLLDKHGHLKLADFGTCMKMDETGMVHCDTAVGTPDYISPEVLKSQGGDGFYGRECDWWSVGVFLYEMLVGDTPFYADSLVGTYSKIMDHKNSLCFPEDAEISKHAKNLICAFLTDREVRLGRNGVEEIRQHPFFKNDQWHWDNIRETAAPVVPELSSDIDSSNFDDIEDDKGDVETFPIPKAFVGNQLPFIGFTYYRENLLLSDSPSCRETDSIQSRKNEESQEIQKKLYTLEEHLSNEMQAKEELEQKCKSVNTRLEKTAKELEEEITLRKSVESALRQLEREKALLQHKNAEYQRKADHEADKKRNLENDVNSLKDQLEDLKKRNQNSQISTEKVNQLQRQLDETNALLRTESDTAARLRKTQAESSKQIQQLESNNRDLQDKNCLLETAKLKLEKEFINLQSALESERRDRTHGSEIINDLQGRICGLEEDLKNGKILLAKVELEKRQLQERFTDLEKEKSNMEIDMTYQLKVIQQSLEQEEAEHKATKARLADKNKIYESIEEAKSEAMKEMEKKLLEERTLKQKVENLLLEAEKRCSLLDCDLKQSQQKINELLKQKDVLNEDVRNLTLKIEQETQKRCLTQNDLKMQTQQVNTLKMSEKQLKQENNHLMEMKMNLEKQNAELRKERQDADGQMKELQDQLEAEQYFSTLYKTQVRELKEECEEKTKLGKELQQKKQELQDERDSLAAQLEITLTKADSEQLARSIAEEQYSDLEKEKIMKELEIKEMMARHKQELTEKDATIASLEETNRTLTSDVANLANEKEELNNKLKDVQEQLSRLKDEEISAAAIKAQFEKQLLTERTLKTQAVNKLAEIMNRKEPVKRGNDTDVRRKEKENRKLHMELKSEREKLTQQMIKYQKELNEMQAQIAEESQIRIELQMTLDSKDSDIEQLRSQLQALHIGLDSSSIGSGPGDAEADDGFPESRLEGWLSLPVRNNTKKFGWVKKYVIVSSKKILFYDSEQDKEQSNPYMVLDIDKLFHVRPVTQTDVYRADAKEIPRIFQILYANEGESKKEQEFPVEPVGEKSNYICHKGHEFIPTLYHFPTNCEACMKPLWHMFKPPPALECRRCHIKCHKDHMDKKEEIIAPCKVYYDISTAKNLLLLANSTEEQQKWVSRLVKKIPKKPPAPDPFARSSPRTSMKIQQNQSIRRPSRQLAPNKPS

Compound | IC50 [nM]
CC(C)CN1CC(=O)N([C@H]2C[C@@]3(C[C@H](Oc4ncccc4C(N)=O)C3)C2)C1=O (stereo partly shown) [Example 13, 2-{[(αR)-6-[3-(2-methylpropyl)-2,5-dioxoimidazol-idin-1-yl]spiro-[3.3]heptan-2-yl]-oxy}pyridine-3-carboxamide] | 515
C#CCC1NC(=O)N([C@H]2C[C@@]3(C[C@H](Oc4ncccc4C(N)=O)C3)C2)C1=O (stereo partly shown) [Example 14, 2-{[(αR)-6-[2,5-dioxo-4-(prop-2-yn-1-yl)imidazol-idin-1-yl]spiro-[3.3]heptan-2-yl]oxy}pyridine-3-carboxamide] | 562
CC(C)(C)OC(=O)NCCCC1NC(=O)N([C@H]2C[C@@]3(C[C@H](Oc4ncccc4C(N)=O)C3)C2)C1=O (stereo partly shown) [Example 15, tert-butyl N-(3-{2,5-dioxo-1-[(αR)-6-[(3-carbamoylpyridin-2-yl)oxy]spiro-[3.3]heptan-2-yl]imidazolidin-4-yl}propyl)-carbamate] | 744
NC(=O)c1cccnc1O[C@H]1C[C@]2(C1)C[C@H](N1C(=O)NC3(CCC3)C1=O)C2 (stereo partly shown) [Example 16, 2-{[(αR)-6-{6,8-dioxo-5,7-diaza-spiro[3.4]octan-7-yl}spiro[3.3]-heptan-2-yl]oxy}-pyridine-3-carbox-amide] | 902
NC(=O)c1cccnc1O[C@H]1C[C@]2(C1)C[C@H](N1C(=O)C3CCCCN3C1=O)C2 (stereo partly shown) [Example 17, 2-{[(αR)-6-{1,3-dioxo-hexahydro-1H-piperidino[1,2-c]imidazolidin-2-yl}spiro[3.3]heptan-2-yl]oxy}pyridine-3-carboxamide] | 1340
NC(=O)c1cccnc1O[C@H]1C[C@]2(C1)C[C@H](N1C(=O)NC(CCO)C1=O)C2 (stereo partly shown) [Example 18, 2-{[(αR)-6-[2,5-dioxo-4-(2-hydroxyethyl)-imidazolidin-1-yl]spiro[3.3]-heptan-2-yl)oxy}-pyridine-3-carboxamide] | 1500
Cn1cnc(CC2NC(=O)N([C@H]3C[C@@]4(C[C@H](Oc5ncccc5C(N)=O)C4)C3)C2=O)c1 (stereo partly shown) [Example 19, 2-{[(αR)-6-[2,5-dioxo-4-(1-methyl-4-imidazylmethyl)-imidazolidin-1-yl]spiro[3.3]heptan-2-yl]oxy}pyridine-3-carboxamide] | 1630
NC(=O)c1cccnc1O[C@H]1C[C@]2(C1)C[C@H](N1C(=O)NC(Cc3c[nH]cn3)C1=O)C2 (stereo partly shown) [Example 22] | 2950
NC(=O)c1cccnc1O[C@H]1C[C@]2(C1)C[C@H](N1C(=O)C3CCCN3C1=O)C2 (stereo partly shown) [Example 23, 2-{[(αR)-6-{1,3-dioxo-hexahydro-1H-pyrrolo[1,2-c]imidazolidin-2-yl}spiro[3.3]-heptan-2-yl]oxy}-pyridine-3-carbox-amide] | 2020
[H][C@]1(Oc2ncccc2C(N)=O)C[C@]2(C[C@@H](N3C(=O)N[C@@H](Cc4ccccc4)C3=O)C2)C1 (stereo partly shown) [Example 24] | 197
CC(C)(C)C[C@@H]1NC(=O)N([C@H]2C[C@@]3(C[C@H](Oc4ncccc4C(N)=O)C3)C2)C1=O (stereo partly drawn) [Example 25, 2-{[(αR)-6-[(4S)-4-(2,2-dimethyl-propyl)-2,5-dioxo-imidazolidin-1-yl]-spiro[3.3]heptan-2-yl]oxy}pyridine-3-carboxamide] | 10
NC(=O)c1cccnc1O[C@H]1C[C@]2(C1)C[C@H](N1C(=O)N[C@@H](CC3CC3)C1=O)C2 (stereo partly drawn) [Example 26, 2-{[(αR)-6-[(4S)-4-(cyclopropyl-methyl)-2,5-dioxo-imidazolidin-1-yl]-spiro[3.3]heptan-2-yl]oxy}pyridine-3-carboxamide] | 38
CC[C@H](C)[C@@H]1NC(=O)N([C@H]2C[C@@]3(C[C@H](Oc4ncccc4C(N)=O)C3)C2)C1=O (stereo partly drawn) [Example 27, 2-{[(αR)-6-[(4S)-4-[(2S)-butan-2-yl]-2,5-dioxoimidazol-idin-1-yl]spiro-[3.3]heptan-2-yl]-oxy}pyridine-3-carboxamide] | 45
CCCC[C@@H]1NC(=O)N([C@H]2C[C@@]3(C[C@H](Oc4ncccc4C(N)=O)C3)C2)C1=O (stereo partly drawn) [Example 28, 2-{[(αR)-6-[(4S)-4-butyl-2,5-dioxo-imidazolidin-1-yl]spiro[3.3]heptan-2-yl]oxy}pyridine-3-carboxamide] | 57
NC(=O)c1cccnc1O[C@H]1C[C@]2(C1)C[C@H](N1C(=O)NC(CCC(F)(F)F)C1=O)C2 (stereo partly shown) [Example 29, 2-{[(αR)-6-[2,5-dioxo-4-(3,3,3-trifluoropropyl)-imidazolidin-1-yl]spiro[3.3]-heptan-2-yl]oxy}-pyridine-3-carbox-amide] | 62
CSCC[C@@H]1NC(=O)N([C@H]2C[C@@]3(C[C@H](Oc4ncccc4C(N)=O)C3)C2)C1=O (stereo partly drawn) [Example 30, 2-{[(αR)-6-[(4S)-4-[2-(methyl-sulfanyl)ethyl]-2,5-dioxoimidazol-idin-1-yl]spiro-[3.3]heptan-2-yl]-oxy}pyridine-3-carboxamide] | 89
CCC[C@@H]1NC(=O)N([C@H]2C[C@@]3(C[C@H](Oc4ncccc4C(N)=O)C3)C2)C1=O (stereo partly drawn) [Example 31, 2-{[(αR)-6-[(4S)-2,5-dioxo-4-propyl-imidazolidin-1-yl]-spiro[3.3]heptan-2-yl]oxy}pyridine-3-carboxamide] | 123
NC(=O)c1cccnc1O[C@H]1C[C@]2(C1)C[C@H](N1C(=O)N[C@@H](CC(F)(F)F)C1=O)C2 (stereo partly drawn) [Example 32, 2-{[(αR)-6-[(4S)-2,5-dioxo-4-(2,2,2-trifluoroethyl)-imidazolidin-1-yl]-spiro[3.3]heptan-2-yl]oxy}pyridine-3-carboxamide] | 156
NC(=O)c1cccnc1O[C@H]1C[C@]2(C1)C[C@H](N1C(=O)N[C@@H](CCOCc3ccccc3)C1=O)C2 (stereo partly drawn) [Example 33, 2-{[(αR)-6-[(4S)-4-[2-(benzyloxy)-ethyl]-2,5-dioxo-imidazolidin-1-yl]-spiro[3.3]heptan-2-yl]oxy}pyridine-3-carboxamide] | 426
NC(=O)c1cccnc1OC1CC2(C1)CC(N1C(=O)N[C@H](Cc3ccccc3)C1=O)C2 (stereo partly drawn) [Example 34, 2-({6-[(4R)-4-benzyl-2,5-dioxo-imidazolidin-1-yl]-spiro[3.3]heptan-2-yl}oxy)pyridine-3-carboxamide] | 539
CC[C@@H]1NC(=O)N([C@H]2C[C@@]3(C[C@H](Oc4ncccc4C(N)=O)C3)C2)C1=O (stereo partly drawn) [Example 35, 2-{[(αR)-6-((4S)-4-ethyl-2,5-dioxo-imidazolidin-1-yl]-spiro[3.3]heptan-2-yl]oxy}pyridine-3-carboxamide] | 1660
COC[C@@H]1NC(=O)N([C@H]2C[C@@]3(C[C@H](Oc4ncccc4C(N)=O)C3)C2)C1=O (stereo partly drawn) [Example 36, 2-{[(αR)-6-[(4S)-4-(methoxymethyl)-2,5-dioxoimidazol-idin-1-yl]spiro-[3.3]heptan-2-yl]-oxy}pyridine-3-carboxamide] | 2390
[H][C@]1(Oc2ncccc2C(N)=O)C[C@]2(C[C@@H](N3C(=O)NC(CCC4CC4)C3=O)C2)C1 (stereo partly shown) [Example 37] | 44
CCCC(C)CC1NC(=O)N([C@H]2C[C@@]3(C[C@H](Oc4ncccc4C(N)=O)C3)C2)C1=O (stereo partly shown) [Example 39, 2-{[(αR)-6-[4-(2-methylpentyl)-2,5-dioxoimidazolidin-1-yl]spiro[3.3]-heptan-2-yl]oxy}-pyridine-3-carbox-amide] | 14
CCC(C)CC1NC(=O)N([C@H]2C[C@@]3(C[C@H](Oc4ncccc4C(N)=O)C3)C2)C1=O (stereo partly shown) [Example 41, 2-{[(αR)-6-[4-(2-methylbutyl)-2,5-dioxoimidazolidin-1-yl]spiro[3.3]-heptan-2-yl]oxy}-pyridine-3-carbox-amide] | 19
